The record followed here is ChEMBL document CHEMBL4041501, “Isolation of Acacetin from Calea urticifolia with Inhibitory Properties against Human Monoamine Oxidase-A and -B” (J Nat Prod, 2016).

The target in data set [1] is T1, Amine oxidase [flavin-containing] B (Homo sapiens, UniProt P27338).
T1 sequence (P27338 whole entry): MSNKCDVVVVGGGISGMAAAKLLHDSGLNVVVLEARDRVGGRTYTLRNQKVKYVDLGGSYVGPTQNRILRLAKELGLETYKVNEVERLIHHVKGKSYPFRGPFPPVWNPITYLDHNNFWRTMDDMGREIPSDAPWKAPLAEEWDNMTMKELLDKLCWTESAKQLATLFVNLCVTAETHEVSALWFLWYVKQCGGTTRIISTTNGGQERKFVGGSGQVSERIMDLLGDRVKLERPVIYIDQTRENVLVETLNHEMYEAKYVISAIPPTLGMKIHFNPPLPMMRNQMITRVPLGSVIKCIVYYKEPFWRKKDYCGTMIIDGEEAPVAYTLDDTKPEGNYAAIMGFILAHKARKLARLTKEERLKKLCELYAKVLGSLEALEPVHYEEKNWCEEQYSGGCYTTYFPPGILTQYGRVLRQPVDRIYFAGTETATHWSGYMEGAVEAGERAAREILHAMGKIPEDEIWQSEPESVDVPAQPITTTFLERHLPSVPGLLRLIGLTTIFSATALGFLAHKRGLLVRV
Briefly: Reversible inhibition of recombinant human MAO-B assessed as recovery of enzyme activity at 5 uM preincubated for 20 mins followed by overnight dialysis. Further details: scale not given: the % may be the effect or the level left; call rule not given here.

The target in data set [2] is T2, Amine oxidase [flavin-containing] A (Homo sapiens, UniProt P21397).
T2 sequence (P21397 whole entry): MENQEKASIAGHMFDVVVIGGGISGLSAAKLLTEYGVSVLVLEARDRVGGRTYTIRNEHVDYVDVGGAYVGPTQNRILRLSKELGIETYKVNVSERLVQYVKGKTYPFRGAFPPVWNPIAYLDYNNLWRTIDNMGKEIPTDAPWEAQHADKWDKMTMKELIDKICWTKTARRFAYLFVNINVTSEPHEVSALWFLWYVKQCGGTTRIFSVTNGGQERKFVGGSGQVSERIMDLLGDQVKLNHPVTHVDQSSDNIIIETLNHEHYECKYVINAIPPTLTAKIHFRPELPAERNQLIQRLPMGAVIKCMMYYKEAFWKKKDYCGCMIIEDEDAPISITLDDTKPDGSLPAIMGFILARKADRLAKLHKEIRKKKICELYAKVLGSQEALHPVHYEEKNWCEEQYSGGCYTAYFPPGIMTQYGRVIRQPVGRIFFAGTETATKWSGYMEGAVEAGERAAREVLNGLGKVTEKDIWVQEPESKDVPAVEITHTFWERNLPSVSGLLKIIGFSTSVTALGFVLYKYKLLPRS
Briefly: Inhibition of recombinant human MAO-A assessed as reduction in 4-hydroxyquinoline formation using kynuramine as substrate after 20 mins by fluorometric assay.

The target of data set [3] is T2, Amine oxidase [flavin-containing] A. Briefly: Inhibition of recombinant human MAO-A at 15 uM after 20 mins relative to control.
The target is the same in data set [4]. Kind of data set: Time-dependent inhibition of recombinant human MAO-A assessed as reduction in 4-hydroxyquinoline formation at 0.5 uM using kynuramine as substrate preincubated up to 15 mins followed by substrate addition by fluorometric assay.
Data set [5] has as its target T1, Amine oxidase [flavin-containing] B. Briefly: Inhibition of recombinant human MAO-B at 5 uM after 20 mins relative to control.
Data set [6] shares this target. Briefly: Time-dependent inhibition of recombinant human MAO-B assessed as reduction in 4-hydroxyquinoline formation at 0.2 uM using kynuramine as substrate preincubated up to 15 mins followed by substrate addition by fluorometric assay.
The target of data set [7] is T2, Amine oxidase [flavin-containing] A. Briefly: Reversible inhibition of recombinant human MAO-A assessed as recovery of enzyme activity at 15 uM preincubated for 20 mins followed by overnight dialysis relative to control. Also noted: scale not given: the % may be the effect or the level left. The settings on record: read-out: Activity.
Data set [8] has the same target. Kind of data set: Competitive inhibition of recombinant human MAO-A assessed as reduction in 4-hydroxyquinoline formation using varying levels of kynuramine as substrate after 20 mins by Lineweaver-Burk plot analysis.
In data set [9] the target is T1, Amine oxidase [flavin-containing] B. Kind of data set: Inhibition of recombinant human MAO-B after 30 mins.
Data set [10] has as its target T2, Amine oxidase [flavin-containing] A. Kind of data set: Inhibition of recombinant human MAO-A after 30 mins.

In general, IC50 refers to the concentration that gives 50% inhibition. For orientation: inhibition means the drop in the measured response relative to a control, in per cent. In general, Ki refers to the equilibrium dissociation constant of an inhibitor or competing ligand from its target. As for `COc1ccc(-c2cc(=O)c3c(O)cc(O)cc3o2)cc1` [ACACETIN], in [1], the Activity is 90%. Further, the IC50 in [2] was 0.121 µM. For the same molecule, in data set [3], the inhibition at 15 µM was more than 95%. In addition, the TDI result in data set [4] and in data set [6] was “Not Active” throughout. In [5], the “inhibition (INH)” value is 90%. Besides, the activity at 15 µM in data set [7] is more than 90%. Also, the Ki in data set [8] was 0.0592 µM.

As to `O=C1C[C@@H](c2ccc(O)cc2)Oc2cc(O)cc(O)c21` [NARINGENIN], the IC50 in [9] turned out to be 288 µM; in data set [10] it was 955 µM.
